Experimental data: patent publication US7378384B2, “WT1 substitution peptides” (International Institute of Cancer Immunology, Inc., priority 2002, dated 2008)
Entries after “also recorded” stand apart in the source; their conditions may differ. Non-standard residues stand in square brackets, D forms with d. No end group written: not given here. Cit = NC(=O)NCCC[C@H](N)C(=O)O; Orn = NCCC[C@H](N)C(=O)O; Abu = CC[C@H](N)C(=O)O

Key:
[1] = test system: HLA-A2402/K^b transgenic mice; experiment: In vivo immunogenicity (CTL-inducing activity): immunization of HLA-A2402/K^b transgenic mice, 51Cr release assay of in vitro restimulated splenocytes; parameters: species or system mouse
Method: In vivo immunogenicity of each antigen peptide was evaluated using the HLA-A2402/K^b transgenic mice. The preparation of the transgenic mice and the determination of in vivo immunogenicity were conducted according to WO 02/47474, and Int J. Cancer. 100, 565-570 (2002) that describe them in detail.
(§1) The non-substituted type peptide and the substituted type peptides as described above were synthesized using Fmoc method. The peptides synthesized were each adjusted to 40 mg/ml in DMSO, and each diluted with a sterilized water to 2.4 mg/ml. They were then mixed with a 1.27 parts of Freund's incomplete adjuvant (ISA51) using a glass syringe to prepare a water-in-oil emulsion. The resultant emulsion (200 μl) was injected into the HLA-A2402/K^b transgenic mouse subcutaneously in the base of the tail for immunization.
Seven days after the immunization, the spleen was removed and grounded on the frosted part of glass slide, and splenocytes were recovered and prepared. A portion of the splenocytes undergone hemolysis treatment with an ACK buffer (0.15 M NH4Cl, 10 mM KHCO3, 0.1 mM EDTA, pH 7.2-7.4) was pulsed with the above-mentioned peptide compositions at 100 μg/ml for 1 hour, and seeded into a 24-well plate at 7×10^5/well. Simultaneously, splenocytes not pulsed with any peptide (7×10^6/well) were added together, and stimulated in vitro and incubated at 37° C. for 5 to 6 days. The in vitro stimulation was carried out in RPMI1640 medium supplemented with 10% FCS, 10 mM HEPES, 20 mM L-glutamine, 1 mM sodium pyruvate, 1 mM MEM nonessential amino acids, 1% MEM vitamin and 55 μM 2-mercaptoethanol.
The test for cytotoxic activity was conducted according to the conventional manner. EL4-A2402/K^b cells obtained by transforming EL-4 cells (DAINIPPON PHARMACEUTICAL CO., LTD., Catalogue No. 06-039) with an expression vector encoding HLA-A2402/K^b, and the EL4-A2402/K^b cells pulsed with peptide A, B, C, D, E, or F were used as target cells (T). The EL4-A2402/K^b cells were prepared in a similar manner to the preparation of Jurkat-A2402/K^b cells described in WO 02/47474.
These cells were labeled with ^51Cr (3.7 MBq/10^6 cells) and pulsed with the peptide at 100 μg/ ml for an hour (The labeling was carried out over 2 hours, and 1 hour after the initiation of labeling, the peptide was added). Splenocytes in vitro stimulated and incubated were used as effector cells (E). They were combined with the target cells at various ratios, and ^51Cr release assay (J. Immunol., 1997; 159: 4753) was conducted to determine the cytotoxic activity of the effector cells. […]
as §1, with “The” for “The non-substituted type peptide and the”, “peptides” for “peptides as described above”, “physiological saline” for “sterilized water”
The test for cytotoxic activity was conducted according to the conventional manner. EL4-A2402/K^b cells obtained by transforming EL-4 cells with an expression vector encoding HLA-A2402/K^b, and the EL4-A2402/K^b cells pulsed with peptide K, L, or M were used as target cells (T).
These cells were labeled with ^51Cr (3.7 MBq/10^6 cells) and pulsed with the peptide at 100 μg/ml for an hour (The labeling was carried out over 2 hours, and 1 hour after the initiation of labeling, the peptide was added). Splenocytes in vitro stimulated and incubated were used as effector cells (E). They were combined with the target cells at various ratios, and ^51Cr release assay (J. Immunol., 1997; 159: 4753) was conducted to determine the cytotoxic activity of the effector cells.

HLA-A24 antigen = conditions: compared with the natural type peptide WT1235-243; cited from earlier work
CTLs = conditions: Clin. Cancer. Res. 8: 2626, 2002, and WO 00/06602; cited from earlier work
[2] = Example 4, peptide in saline/ISA51 emulsion s.c., target EL4-A2402/K^b cells pulsed with the peptide at 100 μg/ml vs not pulsed
[3] = Example 1, s.c. immunization with peptide in ISA51 water-in-oil emulsion, splenocytes 7 days after, target EL4-A2402/K^b cells pulsed with the peptide at 100 μg/ml vs not pulsed
[4] = Example 3, peptide with KLH in ISA51 emulsion s.c., target EL4-A2402/K^b cells pulsed with the peptide at 20 μg/ml vs not pulsed

NYTWNQMNL [peptide M]
immunogenicity (activity to induce CTLs); cytotoxic activity (% Specific Lysis) vs E/T ratio [1, 2]: have an immunogenicity (an activity to induce CTLs); also recorded: specific CTLs were induced

Abu-Tyr-Thr-Trp-Asn-Gln-Met-Asn-Leu ([Abu]YTWNQMNL) [peptide D]
immunogenicity (activity to induce CTLs); cytotoxic activity (% Specific Lysis) vs E/T ratio [1, 3]: specific CTLs were induced

AYTWNQMNL [peptide C]
immunogenicity (activity to induce CTLs); cytotoxic activity (% Specific Lysis) vs E/T ratio [1, 3]: specific CTLs were induced

SYTWNQMNL [peptide B]
immunogenicity (activity to induce CTLs); cytotoxic activity (% Specific Lysis) vs E/T ratio [1, 3]: specific CTLs were induced

RYTWNQMNL [peptide E]
immunogenicity (activity to induce CTLs); cytotoxic activity (% Specific Lysis) vs E/T ratio [1, 3]: specific CTLs were induced

CYTWNQMNL [peptide A, reference compound]
immunogenicity (activity to induce CTLs); cytotoxic activity (% Specific Lysis) vs E/T ratio [1, 3]: specific CTLs were induced
binding activity to the HLA-A24 antigen (HLA-A24 antigen): higher binding activity to the HLA-A24 antigen than the natural type peptide

CMTWNQMNL [WT1235-243]
activity to induce CTLs in HLA-A24-restricted manner (CTLs): having an activity to induce CTLs in HLA-A24-restricted manner

KYTWNQMNL [peptide F]
immunogenicity (activity to induce CTLs); cytotoxic activity (% Specific Lysis) vs E/T ratio [1, 3]: specific CTLs were induced

Cit Tyr Thr Trp Asn Gln Met Asn Leu ([Cit]YTWNQMNL) [peptide J]
immunogenicity (activity to induce CTLs); cytotoxic activity (% Specific Lysis) vs E/T ratio [1, 4]: have an immunogenicity (an activity to induce CTLs); also recorded: specific CTLs were induced

Orn Tyr Thr Trp Asn Gln Met Asn Leu ([Orn]YTWNQMNL) [peptide I]
immunogenicity (activity to induce CTLs); cytotoxic activity (% Specific Lysis) vs E/T ratio [1, 4]: have an immunogenicity (an activity to induce CTLs); also recorded: specific CTLs were induced

AMTWNQMNL [peptide H]
immunogenicity (activity to induce CTLs); cytotoxic activity (% Specific Lysis) vs E/T ratio ([1]; Example 3, peptide with KLH in ISA51 emulsion s.c., target Jurkat-A2402/K^b cells pulsed with the peptide at 20 μg/ml vs not pulsed): have an immunogenicity (an activity to induce CTLs); also recorded: specific CTLs were induced

FYTWNQMNL [peptide L]
immunogenicity (activity to induce CTLs); cytotoxic activity (% Specific Lysis) vs E/T ratio [1, 2]: have an immunogenicity (an activity to induce CTLs); also recorded: specific CTLs were induced

LYTWNQMNL [peptide K]
immunogenicity (activity to induce CTLs); cytotoxic activity (% Specific Lysis) vs E/T ratio [1, 2]: have an immunogenicity (an activity to induce CTLs); also recorded: specific CTLs were induced

SMTWNQMNL [peptide G]
immunogenicity (activity to induce CTLs); cytotoxic activity (% Specific Lysis) vs E/T ratio [1, 4]: have an immunogenicity (an activity to induce CTLs); also recorded: specific CTLs were induced
